Data as given in patent publication US12097172B2, “Prevention and treatment of diabetic nephropathy” (THE CHILDREN'S MEDICAL CENTER CORPORATION, priority 2016, dated 2024).
Where a name gives a salt, the structure may show the parent alone.

How the values were obtained:
Human podocyte cells = test: IL8 challenge of human podocytes in vitro (stress fibers, cortical actin, cell blebbing, synaptopodin); format: cell-based
Method: Human podocyte cells bearing a transgene for the thermosensitive (ts58A) variant of the SV40 T antigen, which make them responsive to interferon-γ for proliferation, were cultured and allowed to grow to 80% confluence at 33° C. (designated as day 0). Cells were then thermoshifted to 37° C., causing inactivation of the SV40 T antigen and cessation of cell replication. Podocytes were cultured at different glucose concentrations (normal glucose: 5 mM [NG]; high glucose: 30 mM [HG]) for 5 days. Mannitol was used as an osmotic control for high glucose (mannitol 20 mM+glucose 10 mM) (FIGS. 10A and 10B).
Podocytes were grown on round glass coverslips (VWR, Radnor, PA) were fixed with paraformaldehyde and then permeabilized with 0.3% Triton X-100 (Fisher Scientific, Waltham, MA). Cells were incubated with rhodamine phalloidin (Invitrogen, Carlsbad, CA) to label F-actin networks and visualize stress fibers. Standard fluorescent microscopy was used to assess stress fiber formation. The percentage of cells containing intact actin filaments was assessed by manual cell counting.

db/db mice = test: KC/CXCR2 axis blockade with Reparixin in db/db diabetic mice (urinary albumin excretion, glycemia, kidney histopathology); format: in vivo
From the text: Kidneys from db/db mice at 8, 12 and 25 weeks of age were surgically removed using standard techniques. To perform standard light microscopy, kidneys were fixed in 4% buffered paraformaldehyde (PFA), dehydrated, and paraffin-embedded. AxioVision software 4.3 was used to record the images from Periodic Acid Schiff (PAS) and Trichrome staining. The evaluation of mesangial matrix was electronically performed using a macro built on the AxioVision analysis module (Carl Zeiss Spa, Thornwood, NY). Glomeruli were identified as a region of interest (ROI) and mesangium was highlighted by a color threshold protocol. Binary images were then produced and mesangium was automatically calculated as percentage of the glomerular area. Image acquisition was performed with a Zeiss Axioscope 40FL microscope and AxioCam MRc5 digital video camera (Carl Zeiss SpA). AxioVision software 4.3 was used to record images and AxioVision analysis module to analyze the results (Carl Zeiss SpA). In order to assess the potential role of IL8 blockade in DN progression, 7 weeks old db/db mice were treated with Reparixin 15 mg/kg (ip) twice a day for 18 weeks (up to 25 weeks of age). Briefly, animals were housed in metabolic cages (Nalgene) to separate feces and urine within a light-controlled environment and provided with water ad-libitum. Sample collection tubes passed below the cages and through small holes in the bottom of the light controlled environment. Urine samples from db/db mice were collected through a metabolic cage at week 8, 12, and 25. The BeadLyte Mouse Multi-cytokine Beadmaster Kit (Millipore, Billerica, MA) was used according to the manufacturer's protocol to determine cytokine levels of IL8. Briefly, the supernatant was incubated with beads conjugated to the IL8 alone for a specified amount of time, and then with biotinylated reporters and streptavidin-phycoerythrin solution for 30 min. A Luminex100 reader (Luminex Corporation, Austin, TX) was used to measure the sample cytokine level. All in vitro and in vivo experimental data presented herein in the examples were performed in triplicate, unless indicated otherwise. Proteinuria in db/db mice was performed in 10 untreated and 30 treated animals. Prism statistical software (La Jolla, CA—USA) was used for data analysis. […] For discrete variables, χ^2 test was used. For all tests, p<0.05 was considered significant.

CXCR1 and CXCR2 = conditions: mice; cited from earlier work

CC(C)Cc1ccc([C@@H](C)C(=O)NS(C)(=O)=O)cc1 [Reparixin, R(-)-2-[(4-isobutylphenyl)propionyl]-methanesulfonamide]
rescue from IL8 induced damage (loss of stress fibers; increase cortical actin; cell blebbing; loss of synaptopodin expression) (Human podocyte cells; reparixin 100 μM, IL8 100 nM, normal glucose and high glucose): able to rescue podocytes from IL8 induced damage | mesangial expansion (kidney histopathology) (db/db mice; db/db mice at 25 weeks of age, treated vs control mice): reduced mesangial expansion | urinary albumin excretion (UAE) (db/db mice; db/db mice at 25 weeks of age, Reparixin 15 mg/kg ip twice a day for 18 weeks, p<0.01 vs Ctrl): 211.1 ± 24.4 µg/mL | urinary albumin levels over time (db/db mice; db/db mice, weeks 8, 12 and 25, Reparixin 15 mg/kg ip twice a day): remained stable over time | effect on glycemic control (db/db mice; db/db mice, Reparixin 15 mg/kg ip twice a day for 18 weeks): No effect

IL8: Interleukin-8 chemokine, ligand of CXCR1 and CXCR2, used as challenge on podocytes
stress fibers (phalloidin staining) (Human podocyte cells; IL8 100 nM, NG and HG, Ctrl vs. IL8 p<0.05): loss of stress fibers | cell morphology (Human podocyte cells; IL8 treatment, NG and HG): cell blebbing | cortical actin (Human podocyte cells; IL8 treatment, NG and HG): dose dependent increase in cortical actin

C[C@@H](C(=O)NS(C)(=O)=O)c1ccc(OS(=O)(=O)C(F)(F)F)cc1 [Ladarixin, R(-)-2-[(4′-trifluoromethanesulfonyloxy)phenyl] propionyl-methanesulfonamide sodium salt]
effect on type 1 diabetes (CXCR1 and CXCR2): able to block and revert type 1 diabetes in mice
